{"source": "patent US9714247B2", "about": "“Multiple kinase pathway inhibitors” (Mannkind Corporation, priority 2012, dated 2017)", "key": {"[1]": {"tested_on": "PLC-γ2 phosphorylation in DoHH-2", "test": "PLCγ2 phosphorylation by flow cytometry", "assay_type": "cell-based, human", "settings": "DoHH-2, increasing concentrations (data not shown)", "experimental": "PLCγ2 phosphorylation was also assessed by flow cytometry. Cells were similarly stimulated and following stimulation, Cytofix buffer (Becton Dickinson) was added, cells were centrifuged and the cell pellets incubated on ice with Phosflow perm buffer III (Becton Dickinson). These cell pellets were washed with Perm/Wash buffer (Becton Dickinson); resuspended and labeled for flow cytometry analysis in a staining mixture containing Perm/Wash buffer and PE-labeled anti-phosphoPCLγa2 (Tyr1217) antibody (Becton Dickinson). The samples were washed with Perm/Wash buffer and analyzed on a FACS Calibur flow cytometer using CellQuest Pro software. As mentioned for the Western blot experiments, phosphorylation of PLCγ2 at Tyr1217 along with Tyr753, Tyr759 and Tyr1197 is correlated with increased PLCγ2 activity. The readout for BTK network signaling was inhibition of phosphorylation of PLCγ2. Cells were gated to exclude dead or dying cells. Fluorescence signals from the antibody staining were plotted in logarithmic units and data was analyzed using Cellquest Pro software. […] An ED50 was calculated based on the geometric mean of fluorescence intensity observed for treatment for four different concentrations of the inhibitors (see Table 7 and FIG. 6). […] Thus treatment with amino naphthyridinones inhibits PLCγ2 phosphorylation consistent with inhibition of BTK and/or LYN activity."}, "DoHH2 cells": {"tested_on": "DoHH2 cells", "settings": "treated 24 hours"}, "[2]": {"tested_on": "PLCγ2 phosphorylation in Ramos cells", "test": "PLCγ2 phosphorylation by flow cytometry", "assay_type": "cell-based, human", "method_in_brief": "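Ramos cells starved 18 h in 1% FBS, pretreated with inhibitor 2 h, then stimulated with anti-IgM (10 ug/ml final) plus 3.3 mM H2O2 for 2 min, then cross-linking F(ab) (10 ug/ml) plus H2O2 for 8 min. Fixed, permeabilized cells stained with PE anti-phospho-PLCγ2 (Tyr1217 or Tyr759), dead cells gated out; ED50 from geometric mean fluorescence over four inhibitor concentrations.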"}, "Src [3]": {"target": "T1, Src (Homo sapiens (Human), UniProt P12931)", "T1 sequence (P12931 whole entry, looked up)": "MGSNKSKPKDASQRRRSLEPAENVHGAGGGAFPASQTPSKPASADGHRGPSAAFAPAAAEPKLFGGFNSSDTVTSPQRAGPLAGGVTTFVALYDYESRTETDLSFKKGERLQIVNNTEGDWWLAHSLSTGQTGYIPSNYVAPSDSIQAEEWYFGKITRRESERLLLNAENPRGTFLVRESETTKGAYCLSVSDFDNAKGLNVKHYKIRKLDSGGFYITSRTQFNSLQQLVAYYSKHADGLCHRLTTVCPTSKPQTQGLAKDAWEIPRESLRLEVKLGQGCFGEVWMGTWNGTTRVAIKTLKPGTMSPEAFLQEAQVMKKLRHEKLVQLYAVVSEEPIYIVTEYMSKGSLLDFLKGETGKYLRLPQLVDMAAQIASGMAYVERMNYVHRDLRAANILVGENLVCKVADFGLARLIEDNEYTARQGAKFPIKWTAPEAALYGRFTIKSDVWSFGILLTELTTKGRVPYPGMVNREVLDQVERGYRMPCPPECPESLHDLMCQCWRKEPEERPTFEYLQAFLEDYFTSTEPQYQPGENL", "test": "biochemical"}, "[4]": {"tested_on": "PLCγ2 phosphorylation in Ramos cells", "test": "PLCγ2 phosphorylation by Western blotting", "assay_type": "cell-based, human", "settings": "anti-IgM/H2O2 stimulation, Tyr1217", "experimental": "Ramos cells were cultured in RPMI 1640 media with 10% FBS and were starved overnight (18 h) in 1% FBS containing media and on the next day pretreated with inhibitor for 2 h before stimulation. Cells were stimulated to induce BTK network dependent signal transduction pathways using mouse anti-human IgM (final concentration 10 ug/ml; Invitrogen) antibodies and 3.3 mM H2O2 mixture for 2 minutes followed by F(Ab) fragment that cross-linked the anti-IgM antibody (final concentration 10 ug/ml), and 3.3 mM H2O2 for 8 minutes. Cell lysates were prepared in lysis buffer containing protease and phosphatase inhibitors, quantified using the BCA protein assay kit (Pierce) and used for Western blotting. Antibodies specifically targeted to the molecules of interest, PLCγ2 phosphorylated at Tyr1217 and total PLCγ2, (Cell Signaling Technology) were used in a standard Western blotting procedure.\nPhosphorylation of PLCγ2 at Tyr1217 along with Tyr753, Tyr759 and Tyr1197 is correlated with increased PLCγ2 activity. The readout for BTK network signaling was inhibition of phosphorylation of PLCγ2 induced by the anti-IgM treatment."}, "Ramos": {"tested_on": "Ramos", "test": "Apoptosis by flow cytometry (Annexin V / 7AAD)", "assay_type": "cell-based, human", "settings": "Table 5, 6 hours"}, "DoHH2": {"tested_on": "DoHH2", "test": "Apoptosis by flow cytometry (Annexin V / 7AAD)", "assay_type": "cell-based, human", "settings": "for Percent Apoptosis DOHH2: Table 5, 6 hours", "excerpt": "Activation of Tec family kinases including BTK, and/or Src kinase family members, regulates cell survival and cell death in normal B cells, lymphomas, and solid tumors. Apoptosis is a programmed cell death characterized by specific changes in cell morphology. […] Staurosporine was used as a positive control for apoptosis. […] Table 6 illustrates that several amino naphthyridinones induce significant apoptosis in DoHH2 cells."}, "DoHH-2 tumor xenograft": {"tested_on": "DoHH-2 tumor xenograft", "assay_type": "in vivo"}, "[5]": {"tested_on": "phosphorylation of SFKs in Ramos cells", "test": "SFK phosphorylation (Tyr 416) by flow cytometry", "assay_type": "cell-based, human", "method_in_brief": "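Ramos cells pretreated with compound 2 hrs in RPMI with 5% FBS, then stimulated 10 minutes with H2O2/anti-IgM. Phospho-Tyr 416 SFK detected by flow cytometry with an antibody that may cross-react across Src family members, plus fluorescent secondary antibody.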"}, "PC3": {"tested_on": "PC3", "test": "Apoptosis by flow cytometry (Annexin V / 7AAD)", "assay_type": "cell-based", "settings": "Table 5, 6 hours"}, "[6]": {"tested_on": "phosphorylation of SFKs in Ramos cells", "test": "SFK phosphorylation (Tyr 416) by Western blotting", "assay_type": "cell-based, human", "settings": "pretreated 2 hours", "experimental": "Ramos cell lysates from stimulated and unstimulated cells were analyzed for the levels of phosphorylated SRC family members. As described in Example 82 (above), cells were pretreated for 2 hours with an amino naphthyridinones and then stimulated with anti-IgM antibody and H2O2, protein lysates were prepared, quantified and used for Western blotting. A commercially available antibody that detects Src phosphorylated at Tyr 416 (Cell Signalling) and may cross-react with other Src family members such as Lyn, Fyn, Lck, Yes and Hck when phosphorylated at equivalent sites was used for Western blot analysis. The molecular weights of SFK family members are quite similar (in the 55-60 kDa range) and different family members cannot be resolved by the conditions used for the Western blot. […] The procedure can be similarly adapted for flow cytometric analysis as with the PLC-γ2 assay in Example 82. Ramos cells were incubated with Compound 1 for 2 hrs in RPMI media with 5% FBS prior to stimulation stimulated with H2O2/anti-IgM/F(Ab) for 10 minutes. Cells were evaluated by FACS analysis using anti-pSRC antibody and FITC-conjugated goat anti-rabbit secondary antibody following overnight storage at 4° C. in BD perm/wash buffer."}, "Src [7]": {"target": "T1, Src", "settings": "read-out: Src IC50"}}, "note": "Where two headings read alike, the source gives them in different places."}
{"smiles": "CCN(CC)CCOc1ccc(Nc2cc3c(cn2)cc(-c2ccccc2)c(=O)n3CC)nc1", "note": "[Compound 1, 7-[5-(2-Diethylamino-ethoxy)-pyridin-2-ylamino]-1-ethyl-3-phenyl-1H-[1, 6]naphthyridin-2-one]", "values": [{"measurement": "Inhibition of PLC-γ2 phosphorylation (flow cytometry)", "setting": "[1]", "value": "dose dependent decrease in PLC-γ2 phosphorylation"}, {"measurement": "Effect on Cell Cycle", "setting": "DoHH2 cells", "value": "G1 Arrest"}, {"measurement": "inhibition at 0.3 µM", "setting": "[2]; Homo sapiens, 0.3 uM, flow cytometry, anti-phospho PLCγ2 (Tyr759), read-out: pPLCγ % inhibition", "value": 63, "unit": "%"}, {"measurement": "EC50", "setting": "[2]; Homo sapiens, flow cytometry, anti-phospho PLCγ2 (Tyr1217), four concentrations, read-out: Inhibition of phosphorylation of PLC-γ2 EC50", "value": 380, "unit": "nM"}, {"measurement": "Inhibition of PLC-γ2 phosphorylation (flow cytometry)", "setting": "[2]; increasing concentrations", "value": "dose dependent decrease in PLC-γ2 phosphorylation"}, {"measurement": "IC50", "setting": "Src [3]", "value": "100 to 1000", "unit": "nM"}, {"measurement": "Inhibition of PLCγ2 phosphorylation (Western blot)", "setting": "[4]", "value": "dose dependent decrease in PLCγ2 phosphorylation"}, {"measurement": "Percent Apoptosis Ramos", "setting": "Ramos; 1 uM", "value": 35.71, "unit": "%"}, {"measurement": "Percent Apoptosis Ramos", "setting": "Ramos; 2 uM", "value": 38.94, "unit": "%"}, {"measurement": "Percent Apoptosis Ramos", "setting": "Ramos; 5 uM", "value": 39.09, "unit": "%"}, {"measurement": "Percent Apoptosis Ramos", "setting": "Ramos; 10 uM", "value": 51.63, "unit": "%"}, {"measurement": "Percent Apoptosis DOHH2", "setting": "DoHH2; 1 uM", "value": 4.43, "unit": "%"}, {"measurement": "Percent Apoptosis DOHH2", "setting": "DoHH2; 2 uM", "value": 29.84, "unit": "%"}, {"measurement": "Percent Apoptosis DOHH2", "setting": "DoHH2; 5 uM", "value": 21.76, "unit": "%"}, {"measurement": "Percent Apoptosis DOHH2", "setting": "DoHH2; 10 uM", "value": 37.52, "unit": "%"}, {"measurement": "Percent Apoptosis at 2 uM", "setting": "DoHH2; Table 6, DOHH2, 2 uM", "value": 26.2, "unit": "%"}, {"measurement": "Percent Apoptosis at 5 uM", "setting": "DoHH2; Table 6, DOHH2, 5 uM", "value": 32.58, "unit": "%"}, {"measurement": "Effect on tumor growth compared with 70 mg/kg PCI-32765", "setting": "DoHH-2 tumor xenograft; 62.5 mg/kg", "value": "more marked effect"}, {"measurement": "Mortality", "setting": "DoHH-2 tumor xenograft; 62.5 mg/kg group, day 17", "value": 2, "unit": "animals"}, {"measurement": "Estimated maximal tolerated dose", "setting": "DoHH-2 tumor xenograft; IP, SCID mice", "value": "~62.5", "unit": "mg/kg/day"}, {"measurement": "Tumor growth inhibition", "setting": "DoHH-2 tumor xenograft; highest dose 62.5 mg/kg/day IP, day 15, 19 and 21", "value": "significantly inhibited tumor growth"}, {"measurement": "inhibition at 0.3 µM", "setting": "[5]; Homo sapiens, 0.3 uM, flow cytometry, SFK phosphorylated at Tyr 416, read-out: pSRC % inhibition", "value": 31, "unit": "%"}, {"measurement": "Inhibition of SFK phosphorylation (flow cytometry)", "setting": "[5]; incubated 2 hrs", "value": "dose-dependent inhibition of SFK phosphorylation"}, {"measurement": "Percent Apoptosis PC3", "setting": "PC3; 1 uM", "value": 7.86, "unit": "%"}, {"measurement": "Percent Apoptosis PC3", "setting": "PC3; 2 uM", "value": 6.5, "unit": "%"}, {"measurement": "Percent Apoptosis PC3", "setting": "PC3; 5 uM", "value": 11.74, "unit": "%"}, {"measurement": "Percent Apoptosis PC3", "setting": "PC3; 10 uM", "value": 6.35, "unit": "%"}, {"measurement": "Inhibition of phosphorylation of SFKs (Western blot)", "setting": "[6]", "value": "dose-dependent decrease of phosphorylation of SFKs"}]}
{"smiles": "CCn1c(=O)c(-c2ccccc2)cc2cnc(Nc3ncc(CCN(C)C)s3)cc21", "note": "[Compound 2, 7-[5-(2-Dimethylamino-ethyl)-thiazol-2-ylamino]-1-ethyl-3-phenyl-1H-[1,6]naphthyridin-2-one]", "values": [{"measurement": "IC50", "setting": "Src [7]", "value": "> 5000", "unit": "nM"}]}
